Among the data in patent US9637498B2, “Substituted thieno[2,3-C]pyridazine-6-carboxamide analogs as positive allosteric modulators of the muscarinic acetylcholine receptor M4” (Vanderbilt University, priority 2013, dated 2017) are EC50 and Emax values, retold here.

The target of the experiment is T1, mAChR M4 (Homo sapiens, UniProt P08173).
T1 construct: expressed in transfected cells; host or cells: CHO-K1 cells, also stably transfected with the chimeric G-protein Gqi5
T1 sequence (P08173 1-479): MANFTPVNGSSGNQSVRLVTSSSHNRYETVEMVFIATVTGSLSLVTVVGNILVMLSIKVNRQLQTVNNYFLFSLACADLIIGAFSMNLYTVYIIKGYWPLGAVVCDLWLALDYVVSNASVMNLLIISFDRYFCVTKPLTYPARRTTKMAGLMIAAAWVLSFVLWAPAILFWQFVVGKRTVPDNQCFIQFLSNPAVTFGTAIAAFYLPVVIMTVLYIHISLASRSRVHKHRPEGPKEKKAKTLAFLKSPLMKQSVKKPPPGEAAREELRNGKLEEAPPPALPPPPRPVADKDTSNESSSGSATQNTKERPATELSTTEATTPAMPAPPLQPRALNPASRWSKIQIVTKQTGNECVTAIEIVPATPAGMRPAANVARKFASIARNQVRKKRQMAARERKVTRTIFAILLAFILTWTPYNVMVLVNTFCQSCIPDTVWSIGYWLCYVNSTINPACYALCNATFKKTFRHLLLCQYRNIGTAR
The experiment can be described thus: mAChR M4 cell-based functional assay (calcium mobilization, potentiation of EC20 acetylcholine response). Conditions: for EC50: CHO-K1 cells expressing mAChR M4 (Gqi5), calcium flux, increase in EC20 acetylcholine response, >10,000 estimated where the curve has no plateau; for Emax at 30 µM: % ACh maximum at 30 μM. The source says:
Chinese hamster ovary (CHO-K1) cells stably expressing rat (r)M1 were purchased from the American Type Culture Collection and cultured according to their indicated protocol. CHO cells stably expressing human (h)M2, hM3, and hM5 were described previously (Levey et al., 1991); hM1 and hM4 cDNAs were purchased from Missouri S&T cDNA Resource; rM4 cDNA was provided by T. I. Bonner (National Institutes of Health, Bethesda, Md.). rM2 and rM3 were cloned from a rat brain cDNA library and sequence verified. hM1, rM2, rM3, hM4, and rM4 cDNAs were used to stably transfect CHO-K1 cells purchased from the American Type Culture Collection using Lipofectamine 2000. To make stable rM2, hM2, hM4, and rM4 cell lines for use in calcium mobilization assays, these cells also were stably transfected with a chimeric G-protein (Gqi5) (provided by B. R. Conklin, University of California, San Francisco) using Lipofectamine 2000. rM1, hM1, rM3, hM3, rM5, and hM5 cells were grown in Ham's F-12 medium containing 10% heat-inactivated fetal bovine serum (FBS), 20 mM HEPES, and 50 µg/mL G418 sulfate. rM2-Gqi5, hM2-Gqi5, and hM4-Gqi5 cells were grown in the same medium also containing 500 µg/mL Hygromycin B. Stable rM4-Gqi5 cells were grown in DMEM containing 10% heat-inactivated FBS, 20 mM HEPES, 400 μg/mL G418 sulfate, and 500 μg/mL Hygromycin B.
For high throughput measurement of agonist-evoked increases in intracellular calcium, CHO-K1 cells stably expressing muscarinic receptors were plated in growth medium lacking G418 and hygromycin at 15,000 cells/20 μL/well in Greiner 384-well black-walled, tissue culture (TC)-treated, clear-bottom plates (VWR). Cells were incubated overnight at 37° C. and 5% CO2. The next day, cells were washed using an ELX 405 (BioTek) with four washes (80 μL) of assay buffer then aspirated to 20 μL. Next, 20 μL of 16 μM Fluo-4/acetoxymethyl ester (Invitrogen, Carlsbad, Calif.) prepared as a 2.3 mM stock in DMSO and mixed in a 1:1 ratio with 10% (w/v) Pluronic F-127 and diluted in assay buffer was added to the wells and the cell plates were incubated for 50 min at 37° C. and 5% CO2. Dye was removed by washing with the ELX 405 (four 80 μL washes of assay buffer) then aspirated to 20 μL. Compound master plates were formatted in an 11 point CRC format (1:3 dilutions) in 100% DMSO with a starting concentration of 10 mM using the BRAVO liquid handler (Agilent). Test compound CRCs were then transferred to daughter plates (240 nL) using the Echo acoustic plate reformatter (Labcyte, Sunnyvale, Calif.) and then diluted into assay buffer (40 μL) to a 2× stock using a Thermo Fisher Combi (Thermo Fisher Scientific, Waltham, Mass.).
Calcium flux was measured using the Functional Drug Screening System (FDSS) 6000 (Hamamatsu Corporation, Tokyo, Japan) as an increase in the fluorescent static ratio. Compounds were applied to cells (20 μL, 2×) using the automated system of the FDSS 6000 at 4 s into the 300 s protocol and the data were collected at 1 Hz. At 144 s into the 300 s protocol, 10 μL of an EC20 concentration of the muscarinic receptor agonist acetylcholine was added (5×), followed by the addition of 12 μL an EC80 concentration of acetylcholine at the 230 s time point (5×). Agonist activity was analyzed as a concentration-dependent increase in calcium mobilization upon compound addition. Positive allosteric modulator activity was analyzed as a concentration-dependent increase in the EC20 acetylcholine response. Antagonist activity was analyzed as a concentration-dependent decrease in the EC80 acetylcholine response. Concentration-response curves were generated using a four-parameter logistical equation in XLFit™ curve fitting software (IDBS, Bridgewater, N.J.) for Excel (Microsoft, Redmond, Wash.) or Prism (GraphPad Software, Inc., San Diego, Calif.). […]

For `Cc1nnc2sc(C(=O)NCc3ccc(S(=O)(=O)C(F)(F)F)cc3)c(Br)c2c1C` [B1], the EC50 is over 10 µM. For `COc1ccc(CNC(=O)c2sc3nnc(C)c(C)c3c2Br)cc1` [B2], the maximum response (Emax) at 30 µM was found to be 36% and the EC50 was 3.7 µM.

`Cc1nnc2sc(C(=O)NC3CN(c4ccc(C(F)(F)F)nc4)C3)cc2c1C` [B3]: the Emax at 30 µM was 53% and the EC50 is 1 µM.

As to `COc1ccc(CNC(=O)c2cc3c(C)c(C)nnc3s2)cc1F` [B4], the Emax at 30 µM amounted to 68% and the EC50 was 1.4 µM. Take `Cc1nnc2sc(C(=O)NC3CCN(c4ccccc4)C3)cc2c1C` (centres unmarked) [B5]: the EC50 was over 10 µM.

For `Cc1nnc2sc(C(=O)NC3COC3)cc2c1C` [B6], the Emax at 30 µM was found to be 76% and the concentration giving a half-maximal response (EC50) is 3.9 µM. Taken in the same sequence, the figures for `Cc1nnc2sc(C(=O)NC3CC3)cc2c1C` [B7] were 72% and 4.3 µM. As to `Cc1nnc2sc(C(=O)N3CC(c4ccccc4)C3)c(C3CC3)c2c1C` [B8], the 50% effective concentration (EC50) was over 10 µM. Take `COc1ccc(CNC(=O)c2sc3nnc(C)c(C)c3c2C)cc1F` [B9]: the Emax at 30 µM worked out at 59% and the 50% effective concentration (EC50) was 2 µM. Regarding `Cc1nnc2sc(C(=O)NC3CC3)c(C3CC3)c2c1C` [B11], the maximal effect (Emax) at 30 µM was determined as 35% and the EC50 is over 10 µM.

In the case of `COc1ccc(C2CC2NC(=O)c2sc3nnc(C)c(C)c3c2C2CC2)cc1` (centres unmarked) [B12], the 50% effective concentration (EC50) is over 10 µM. Take `Cc1nnc2sc(C(=O)NC3COC3)c(C3CC3)c2c1C` [B13]: the Emax at 30 µM is 46% and the EC50 is about 9 µM. For `Cc1nnc2sc(C(=O)NC3CC3)c(C)c2c1C` [B14] the same measures were 68% and over 10 µM. Taken in the same sequence, the figures for `Cc1nnc2sc(C(=O)NC3CCC3)c(C3CC3)c2c1C` [B15] were 33% and 5.2 µM. Take `Cc1nnc2sc(C(=O)N3CCC(c4ccccc4)C3)c(C3CC3)c2c1C` (centres unmarked) [B16]: the EC50 is over 10 µM.

As for `Cc1nnc2sc(C(=O)NC3CC(F)(F)C3)c(C3CC3)c2c1C` [B17], the Emax at 30 µM came out at 35% and the concentration for a half-maximal effect (EC50) is over 10 µM.

For the compound `COc1ccc(CNC(=O)c2sc3nnc(C)c(C)c3c2C2CC2)cc1F` [B18], the Emax at 30 µM was 38% and the EC50 was 4.4 µM. Take `Cc1nnc2sc(C(=O)N3CCC(c4ccccc4)C3)c(C)c2c1C` (centres unmarked) [B19]: the EC50 was over 10 µM. As for `Cc1nnc2sc(C(=O)NC3CN(c4cccnc4)C3)c(C)c2c1C` [B20], the maximum response (Emax) at 30 µM was found to be 69% and the EC50 was 0.91 µM. As for `COc1ccc(C2CC2NC(=O)c2sc3nnc(C)c(C)c3c2C)cc1` (centres unmarked) [B21], the Emax at 30 µM was 51% and the concentration for a half-maximal effect (EC50) was 2.1 µM. For `Cc1nnc2sc(C(=O)NC3CN(c4ccc(C(F)(F)F)nc4)C3)c(C3CC3)c2c1C` [B22], the Emax at 30 µM stood at 24% and the EC50 was 3.1 µM. Taken in the same sequence, the figures for `Cc1nnc2sc(C(=O)NC3COC3)c(C)c2c1C` [B23] were 65% and over 10 µM.
